Results reported in patent US12263248B2, “Compounds and compositions for intracellular delivery of therapeutic agents” (ModernaTX, Inc., priority 2018, dated 2025).

What was measured:
[1] = Metabolite identification of Compound 18 in human plasma; assay type: in vitro ADME; design: key to Detection in incubation: +: Detected; ND: Not detected; conditions: for Detection in incubation: Compound 18 (10 μM), human plasma
Method: Metabolite Identification: Compound 18 (10 μM) was incubated with human plasma (29.0 mg protein/incubation) in incubation mixtures (200 μL final incubation volume) that consisted of 50/50v/v neat plasma (undiluted)/substrate solution in 50 mM phosphate buffer, pH 7.4). The plasma was obtained from male and female donors and contained K2EDTA anticoagulant. Reactions were started by addition of the substrate solution to human plasma and were stopped at four designated time points (0, 30, 60 and 90 min) by the addition of 600 μL of stop reagent (acetonitrile). Stopped incubation samples were centrifuged (e.g., 10,000×g for 10 min at 10° C.) and the supernatant fractions were analyzed by LC-MS/MS to characterize the metabolites formed from compound 18. Additional incubations were performed with the positive control procaine (5 μM) to establish competency of the test system. Samples were analyzed by LC-MS/MS.

C5b9 = assay: Complement activation indicators in non-human primates; assay type: in vivo, Cynomolgus monkeys
Method: The tolerability and efficacy of nanoparticle compositions to non-human primates was also investigated using a sample formulation including Compound 18. The formulation was prepared according to the standard MC3 formulation described above and included an hEPO mRNA. Primates were administered a single dose of 0.05 (Group 1), 0.3 (Group 2), or 1.0 (Group 3) mpk via intravenous infusion for 60 minutes. Three primates were administered each dose. Expression of hEPO was measured prior to dosing and at 2, 6, 24, 48, and 96 hours post-treatment (Table 26). Table 28 includes levels of indicators of complement activation, while Table 29 includes cytokine induction data.
Serum C5b9 levels: C5b9 sample analysis was performed using an ELISA method. The kit used was Human C5b-9 ELISA Set and Reagent Set B from BD Bioscience. Study samples were analyzed in singlicate diluted 1/100.

[2] = One month toxicology evaluation: C5b9 and MCP-1 serum concentration in cynomolgus monkeys; assay type: in vivo; conditions: 1 mg/kg mRNA, day 1 and day 29, vs PBS
Text: FIGS. 33A and 33B are a pair of graphs summarizing the results of a one month toxicology evaluation in rats and non-human primates.

[3] = Sprague Dawley, rat, in vivo, iv, 5 mg/kg, 20 min
Method: Sprague Dawley rats were administered with nanoparticles of the disclosure via i.v. bolus at 5 mpk. The nanoparticle contained two mRNA encoding a broadly neutralizing influenza antibody in a 2:1 ratio.

[4] = MC3 single cell necrosis in rat liver and liver enzymes; assay type: in vivo, rats; conditions: rat liver
Method: FIG. 37 is a series of graphs illustrating MC3 single cell necrosis in rat liver and liver enzyme. The top row is a pair of images of livers of rats administered with 0.3 mg/kg of a […] (LNP) not containing an mRNA (right) and PBS (phosphate buffered saline) as a control (left). The bottom row is a pair of graphs showing expression of ALT (left) and AST(right) in the liver following administration of a 0.3 mg/kg of a MC3-based LNP containing an mRNA.

[5] = 0.3 mg/kg of MC3-based LNP containing an mRNA

For CCCCCCCCCOC(=O)CCCCCCCN(CCO)CCCCCCCC(=O)OC(CCCCCCCC)CCCCCCCC [Compound 18, Heptadecan-9-yl 8-((2-hydroxyethyl)(8-(nonyloxy)-8-oxooctyl)amino)octanoate], the Detection in incubation ([1]; 0 min) was “+”, the Detection in incubation ([1]; 30 min) was “+” and the Detection in incubation ([1]; 60 min) was “+”. The Detection in incubation ([1]; 90 min) was “+”, the “initial step of metabolism” value ([1]; in vitro metabolite identification studies) was “primary ester hydrolysis to compound 166” and the C3a (C5b9; 0.05 mpk, 2 h) was 19236 ng/mL. The C5b9 (C5b9; 0.05 mpk, 24 h) was 265 ng/mL, the C5b9 (C5b9; 0.05 mpk, Day 5) was 163 ng/mL and the C3a (C5b9; 0.05 mpk, Predose) was 10600 ng/mL. It also gave a C3a (C5b9; 0.3 mpk, 2 h) of 42897 ng/mL, a C5b9 (C5b9; 0.3 mpk, 24 h) of 614 ng/mL and a C5b9 (C5b9; 0.3 mpk, Day 5) of 405 ng/mL. The C3a (C5b9; 0.3 mpk, Predose) was 9827 ng/mL, the C3a (C5b9; 1.0 mpk, 2 h) was 75936 ng/mL and the C5b9 (C5b9; 1.0 mpk, 24 h) was 4798 ng/mL. The C5b9 (C5b9; 1.0 mpk, Day 5) was 534 ng/mL, the C3a (C5b9; 1.0 mpk, Predose) was 12792 ng/mL and the C5b9 serum concentration ([2]; all timepoints) was “No statistical difference”. The MCP-1 serum concentration ([2]; any timepoint other than the one marked *p<0.05) was “no statistical difference” and the “Clinical Observations” value [3] was 20 min- Flushed ears and paws.
In the case of CCCCC/C=C\C/C=C\CCCCCCCCC(CCCCCCCC/C=C\C/C=C\CCCCC)OC(=O)CCCN(C)C [MC3, DLin-MC3-DMA, reference compound], the pathology ([4]; 0.3 mg/kg MC3-based LNP) is reported as “evidence of necrosis”, the ALT [4, 5] is reported as “elevated” and the AST [4, 5] is reported as “elevated”.
